These compounds were tested against Signal transducer and activator of transcription 3 (Homo sapiens) (UniProt P40763) (assay: STAT3 reporter inhibitors, potency, dose response, cell-based (AID 1399)). Conditions: human cell STAT3 reporter inhibition.

Row | Structure (SMILES) | IC50 [µM]
1 | Cc1cc(C)n(Cc2ccc(NC(=O)c3ccc(COc4ccccc4Br)cc3)cc2)n1 | 7.64
2 | NC(=O)C1CCN(c2ccc(S(=O)(=O)N3CCC(Cc4ccccc4)CC3)cn2)CC1 | 4.93
3 | Nc1c(C(=O)NC2CCCCC2)nsc1C(=O)OCC(=O)NC1CCCCC1 | 4.22
4 | COc1cccc(-c2cc(C(=O)Nc3cccc(O)c3)no2)c1 | 4.99
5 | Oc1ccc(-c2n[nH]c(=S)n2-c2ccc3c(c2)OCCO3)c(O)c1 | 5.37
6 | COc1ccc(Br)cc1/C(C)=N/NC1=NCCN1 | 5.44

From PubChem BioAssay AID1399 (The Scripps Research Institute Molecular Screening Center, 2008)
